Key:
GAPDH locus = assay: gRNA cutting efficiency by ICE analysis, GAPDH locus; format: cell-based; settings: RNP with Cas9 nucleofected into human PSCs, gDNA at 72 hours
Experimental: (§1) CRISPR-Cas9 gene editing was performed to insert transgenes into the intended STEL sites in the following experiments. Three guide RNAs (gRNAs) were designed computationally to target the 3′ UTR of GAPDH proximal to the stop codon. Five gRNAs were designed computationally to target the 3′ UTR of RPL13A proximal to the stop codon. These gRNAs were designed to have a low number of off-target sites and have a high predicted activity against the target sequence.
(§2) To test gRNA cutting efficiency, gRNAs complexed with Cas9 nuclease were delivered as ribonucleoproteins (RNPs) separately into human PSCs via nucleofection. At 72 hours following nucleofection, gDNA was extracted from each pool of nucleofected cells. A region around the GAPDH or RPL13A locus intended cut site was PCR-amplified using the following primers: […]
(§3) Overall cutting efficiency of each gRNA was determined by Inference of CRISPR Edits (ICE) Analysis by comparing a Sanger sequencing chromatogram from unedited cells to the Sanger sequencing chromatogram from each gRNA condition.

RPL13A locus = assay: gRNA cutting efficiency by ICE analysis, RPL13A locus; format: cell-based; settings: RNP with Cas9 nucleofected into human PSCs, gDNA at 72 hours
Experimental: as §1, §2, §3

[1] = test system: GAPDH-targeted RapaCasp9 PSC line; assay: Flow cytometric analysis of cleaved Caspase 3 after rapamycin treatment; format: cell-based, human; settings: 5nM or 10 nM rapamycin, 24 hours of treatment
Experimental: A GAPDH-targeted RapaCasp9 PSC line was treated with either 5nM or 10 nM of rapamycin for 1, 2, 4 or 24 hours, and cells were harvested for flow cytometric analysis after each timepoint (FIG. 17). The primary antibody used was an anti-human/mouse cleaved caspase-3 conjugated to an Alexa Fluor® 488 […]. The primary antibody detects human and mouse Caspase 3 cleaved at Asp175. Caspase 3 is an executioner caspase that functions downstream of the initiator caspase, Caspase 9, in the apoptotic cascade. […] Upon induction of apoptosis through either cell stress or activation, it undergoes proteolysis into cleaved Caspase 3 subunits. […] There was negligible detection of cleaved Caspase 3 for edited PSCs not treated with rapamycin.

5′-CUUCCUCUUGUGCUCUUGCU-3′ (SEQ ID NO:7) (listed as RNA, chemistry not given here) [GAPDH gRNA, guide RNA targeting the 3′ UTR of GAPDH proximal to the stop codon]
relative cutting efficiency (GAPDH locus): highest relative cutting efficiencies

5′-GGAAGGGCAGGCAACGCAUG-3′ (SEQ ID NO:8) (listed as RNA, chemistry not given here) [RPL13A gRNA, guide RNA targeting the 3′ UTR of RPL13A proximal to the stop codon]
relative cutting efficiency (RPL13A locus): highest relative cutting efficiencies

CO[C@H]1C[C@@H]2CC[C@@H](C)[C@@](O)(O2)C(=O)C(=O)N2CCCC[C@H]2C(=O)O[C@H]([C@H](C)C[C@@H]2CC[C@@H](O)[C@H](OC)C2)CC(=O)[C@H](C)/C=C(\C)[C@@H](O)[C@@H](OC)C(=O)[C@H](C)C[C@H](C)/C=C/C=C/C=C/1C [rapamycin]
cells staining for cleaved Caspase 3 [1]: > 99%
